Values quoted from earlier work, collected in Sander's compilation of Henry's law constants (doi:10.1021/je049850a).

test: Henry solubility constant Hcp at 298.15 K (mol/(m3 Pa)); settings: reference: Plyasunov et al. (2004); cited value

SMILES	Henry solubility constant Hcp
CC(=O)OC(C)(C)C [1,1-dimethylethyl ethanoate]	0.011
CCC(C)OC(C)=O (stereo not drawn) [2-butyl ethanoate]	0.023
CC(C)COC(=O)C(C)C [2-methylpropyl 2-methylpropanoate]	0.0078
CC(=O)OCC(C)C [2-methylpropyl ethanoate]	0.024
CCCC(=O)OC(C)C [2-propyl butanoate]	0.018
CC(=O)OC(C)C [2-propyl ethanoate]	0.033
CC(=O)OCCC(C)C [3-methylbutyl ethanoate]	0.02
CC(C)CCOC=O [3-methylbutyl methanoate]	0.012
CC(C)COC=O [(2-methylpropyl)-methanoate]	0.016
CCC(=O)OCC(C)C [(2-methylpropyl)-propanoate]	0.015
CCCCOC(=O)CCC [butyl butanoate]	0.016
CCCCOC(C)=O [butyl ethanoate]	0.035
CCCCOC=O [butyl methanoate]	0.019
CCCCOC(=O)CCCC [butyl pentanoate]	0.0098
CCCCOC(=O)CC [butyl propanoate]	0.02
CCOC(=O)C(C)(C)C [ethyl 2,2-dimethylpropanoate]	0.0057
CCOC(=O)C(C)CC (stereo not drawn) [ethyl 2-methylbutanoate]	0.014
CCOC(=O)C(C)C [ethyl 2-methylpropanoate]	0.017
CCOC(=O)CC(C)C [ethyl 3-methylbutanoate]	0.014
CCCC(=O)OCC [ethyl butanoate]	0.029
CCCCCCCCCC(=O)OCC [ethyl decanoate]	0.012
CCOC(C)=O [ethyl ethanoate]	0.063
CCCCCC(=O)OCC [ethyl hexanoate]	0.019
CCOC=O [ethyl methanoate]	0.035

SMILES	Henry solubility constant Hcp
CCCCCCCC(=O)OCC [ethyl octanoate]	0.017
CCCCC(=O)OCC [ethyl pentanoate]	0.023
CCOC(=O)CC [ethyl propanoate]	0.041
CCCCCCOC(C)=O [hexyl ethanoate]	0.017
CCCCCCOC=O [hexyl methanoate]	0.01
CC(C)OC=O [isopropyl methanoate]	0.019
CCC(=O)OC(C)C [isopropyl propanoate]	0.018
COC(=O)C(C)(C)C [methyl 2,2-dimethylpropanoate]	0.0095
COC(=O)C(C)C [methyl 2-methylpropanoate]	0.026
CCCC(=O)OC [methyl butanoate]	0.042
COC(C)=O [methyl ethanoate]	0.081
CCCCCCC(=O)OC [methyl heptanoate]	0.018
CCCCCC(=O)OC [methyl hexanoate]	0.026
CCCCCCCCC(=O)OC [methyl nonanoate]	0.0082
CCCCCCCC(=O)OC [methyl octanoate]	0.012
CCCCC(=O)OC [methyl pentanoate]	0.03
CCC(=O)OC [methyl propanoate]	0.055
CCCCCOC(C)=O [pentyl ethanoate]	0.027
CCCCCOC=O [pentyl methanoate]	0.016
CCCCCOC(=O)CC [pentyl propanoate]	0.019
CCCOC(=O)CCC [propyl butanoate]	0.022
CCCOC(C)=O [propyl ethanoate]	0.045
CCCOC=O [propyl methanoate]	0.028
CCCOC(=O)CC [propyl propanoate]	0.029
